# In PubChem BioAssay AID2060890 (Molecular Pharmacology Branch, DTP, NCI, 2025):
# Test system: LG0703-F948-PDC complex spheroid viability
# Assay: Anticancer human tumor LG0703-F948-PDC patient-derived lung adenocarcinoma cell line growth inhibition [RAS]
# Details: for IC50: curve of first compound; for viability, T/C: stronger effect = lower value
# Outline: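 Multi-cell-type spheroids: tumor cells plus HUVEC endothelial cells and mesenchymal stem cells. RAS-pathway inhibitors were combined with targeted agents, each dosed in half-log steps down from clinical Cmax, or from 10 microM when Cmax was unknown.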
# 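Further: spheroids exposed to agents for 7 days.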
# 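Wherever viability, T/C is given: 100% = DMSO vehicle wells.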
smiles,measurement,setting,value
CC(C)NCC(C(=O)N1CCN(c2ncnc3c2C(C)CC3O)CC1)c1ccc(Cl)cc1 (centres undefined) + CCn1c(-c2cc(N3CCN(C)CC3)cnc2C(C)OC)c2c3cc(ccc31)-c1csc(n1)CC(NC(=O)C1CC1C)C(=O)N1CCCC(N1)C(=O)OCC(C)(C)C2,IC50,second compound 0.000949 µM,127 nM
same,IC50,second compound 0.003 µM,34.1 nM
same,IC50,second compound 0.00949 µM,< 31.6 nM
same,IC50,second compound 0.03 µM,< 31.6 nM
same,IC50,second compound 0.0949 µM,< 31.6 nM
same,IC50,second compound 0.3 µM,< 31.6 nM
same,"viability, T/C","second compound 0.000949 µM, first compound 0.0316 µM",64.1%
same,"viability, T/C","second compound 0.000949 µM, first compound 0.1 µM",54%
same,"viability, T/C","second compound 0.000949 µM, first compound 0.316 µM",37.1%
same,"viability, T/C","second compound 0.000949 µM, first compound 1 µM",30%
same,"viability, T/C","second compound 0.000949 µM, first compound 3.16 µM",17.6%
same,"viability, T/C","second compound 0.000949 µM, first compound 10 µM",14.5%
same,"viability, T/C","second compound 0.003 µM, first compound 0.0316 µM",51%
same,"viability, T/C","second compound 0.003 µM, first compound 0.1 µM",35%
same,"viability, T/C","second compound 0.003 µM, first compound 0.316 µM",18%
same,"viability, T/C","second compound 0.003 µM, first compound 1 µM",13.1%
same,"viability, T/C","second compound 0.003 µM, first compound 3.16 µM",12.7%
same,"viability, T/C","second compound 0.003 µM, first compound 10 µM",8.04%
same,"viability, T/C","second compound 0.00949 µM, first compound 0.0316 µM",23.2%
same,"viability, T/C","second compound 0.00949 µM, first compound 0.1 µM",16.7%
same,"viability, T/C","second compound 0.00949 µM, first compound 0.316 µM",10.3%
same,"viability, T/C","second compound 0.00949 µM, first compound 1 µM",7.8%
same,"viability, T/C","second compound 0.00949 µM, first compound 3.16 µM",6.46%
same,"viability, T/C","second compound 0.00949 µM, first compound 10 µM",3.27%
same,"viability, T/C","second compound 0.03 µM, first compound 0.0316 µM",11.7%
same,"viability, T/C","second compound 0.03 µM, first compound 0.1 µM",13.7%
same,"viability, T/C","second compound 0.03 µM, first compound 0.316 µM",7.73%
same,"viability, T/C","second compound 0.03 µM, first compound 1 µM",3.93%
same,"viability, T/C","second compound 0.03 µM, first compound 3.16 µM",3.49%
same,"viability, T/C","second compound 0.03 µM, first compound 10 µM",1%
same,"viability, T/C","second compound 0.0949 µM, first compound 0.0316 µM",10%
same,"viability, T/C","second compound 0.0949 µM, first compound 0.1 µM",6.85%
same,"viability, T/C","second compound 0.0949 µM, first compound 0.316 µM",4.55%
same,"viability, T/C","second compound 0.0949 µM, first compound 1 µM",3.71%
same,"viability, T/C","second compound 0.0949 µM, first compound 3.16 µM",1.27%
same,"viability, T/C","second compound 0.0949 µM, first compound 10 µM",0.64%
same,"viability, T/C","second compound 0.3 µM, first compound 0.0316 µM",9.37%
same,"viability, T/C","second compound 0.3 µM, first compound 0.1 µM",5.76%
same,"viability, T/C","second compound 0.3 µM, first compound 0.316 µM",5.01%
same,"viability, T/C","second compound 0.3 µM, first compound 1 µM",3.25%
same,"viability, T/C","second compound 0.3 µM, first compound 3.16 µM",1.87%
same,"viability, T/C","second compound 0.3 µM, first compound 10 µM",0.61%
CCN1CCN(Cc2ccc(Nc3ncc(F)c(-c4cc(F)c5nc(C)n(C(C)C)c5c4)n3)nc2)CC1 + C=CC(=O)N1CCN(c2nc(OCC3CCCN3C)nc3c(F)c(-c4nc(N)cc(C)c4C(F)(F)F)c(Cl)cc23)C(C)C1,IC50,second compound 0.00316 µM,> 1000 nM
same,IC50,second compound 0.01 µM,> 1000 nM
same,IC50,second compound 0.0316 µM,> 1000 nM
same,IC50,second compound 0.1 µM,> 1000 nM
same,IC50,second compound 0.316 µM,> 1000 nM
same,IC50,second compound 1 µM,> 1000 nM
same,"viability, T/C","second compound 0.00316 µM, first compound 0.00316 µM",106%
same,"viability, T/C","second compound 0.00316 µM, first compound 0.01 µM",92.5%
same,"viability, T/C","second compound 0.00316 µM, first compound 0.0316 µM",85.5%
same,"viability, T/C","second compound 0.00316 µM, first compound 0.1 µM",74.7%
same,"viability, T/C","second compound 0.00316 µM, first compound 0.316 µM",85.3%
same,"viability, T/C","second compound 0.00316 µM, first compound 1 µM",66.9%
same,"viability, T/C","second compound 0.01 µM, first compound 0.00316 µM",110%
same,"viability, T/C","second compound 0.01 µM, first compound 0.01 µM",98.8%
same,"viability, T/C","second compound 0.01 µM, first compound 0.0316 µM",89.8%
same,"viability, T/C","second compound 0.01 µM, first compound 0.1 µM",86.5%
same,"viability, T/C","second compound 0.01 µM, first compound 0.316 µM",81%
same,"viability, T/C","second compound 0.01 µM, first compound 1 µM",71%
same,"viability, T/C","second compound 0.0316 µM, first compound 0.00316 µM",108%
same,"viability, T/C","second compound 0.0316 µM, first compound 0.01 µM",109%
same,"viability, T/C","second compound 0.0316 µM, first compound 0.0316 µM",91.1%
same,"viability, T/C","second compound 0.0316 µM, first compound 0.1 µM",79.7%
same,"viability, T/C","second compound 0.0316 µM, first compound 0.316 µM",82.7%
same,"viability, T/C","second compound 0.0316 µM, first compound 1 µM",61.7%
same,"viability, T/C","second compound 0.1 µM, first compound 0.00316 µM",106%
same,"viability, T/C","second compound 0.1 µM, first compound 0.01 µM",98.9%
same,"viability, T/C","second compound 0.1 µM, first compound 0.0316 µM",92.5%
same,"viability, T/C","second compound 0.1 µM, first compound 0.1 µM",78%
same,"viability, T/C","second compound 0.1 µM, first compound 0.316 µM",84.3%
same,"viability, T/C","second compound 0.1 µM, first compound 1 µM",68.9%
same,"viability, T/C","second compound 0.316 µM, first compound 0.00316 µM",106%
same,"viability, T/C","second compound 0.316 µM, first compound 0.01 µM",95.6%
same,"viability, T/C","second compound 0.316 µM, first compound 0.0316 µM",89.6%
same,"viability, T/C","second compound 0.316 µM, first compound 0.1 µM",81.5%
same,"viability, T/C","second compound 0.316 µM, first compound 0.316 µM",78.7%
same,"viability, T/C","second compound 0.316 µM, first compound 1 µM",64.3%
same,"viability, T/C","second compound 1 µM, first compound 0.00316 µM",109%
same,"viability, T/C","second compound 1 µM, first compound 0.01 µM",109%
same,"viability, T/C","second compound 1 µM, first compound 0.0316 µM",108%
same,"viability, T/C","second compound 1 µM, first compound 0.1 µM",81.2%
same,"viability, T/C","second compound 1 µM, first compound 0.316 µM",87.4%
same,"viability, T/C","second compound 1 µM, first compound 1 µM",65.3%
